Measurements published in US20240108740A1, “THERAPEUTIC COMPOSITIONS INCLUDING SPN10 AND USES THEREOF” (Stealth BioTherapeutics Inc., priority 2022, published 2024).
Residues, ends and D or L forms follow the SMILES beside them.

Legend:
[1] = test system: Islet cells isolated from mouse pancreas; experiment: Example 29: viability of isolated pancreatic islet cells; type: cell-based; conditions: added to isolation buffers
Excerpt: Islet cells will be isolated from mouse pancreas according to standard procedures. Peptide conjugates, aromatic-cationic peptides, SPN10(s) with or without aromatic-cationic peptides or control vehicle will be added to isolation buffers used throughout the isolation procedure. Mitochondrial membrane potential will be measured using TMRM (red) and visualized by confocal microscopy, and apoptosis will be measured by flow cytometry using annexin V and necrosis by propidium iodide.

[2] = test system: Sprague-Dawley rats; experiment: Example 32: mitochondrial dysfunction in rats fed a high-fat diet; conditions: rat, in vivo
Procedure: Animals and reagents. Thirty male Sprague-Dawley rats will be obtained from Charles River Laboratory (Wilmington, MA) and housed in a temperature (22° C.) and light controlled room with free access to food and water. Twenty of the animals will be maintained on a high (60%) fat diet (Research Dyets, Bethlehem, PA). Skeletal muscle will be obtained from anesthetized animals (100 mg/kg i.p. ketamine-xylazine). After surgery, animals will be sacrificed by cervical dislocation while anesthetized. Amplex Red Ultra reagent will be obtained from Molecular Probes (Eugene, OR). Stigmatellin and horseradish peroxidase (HRP) will be obtained from Fluka Biochemika (Buchs, Switzerland). All other chemicals will be purchased from Sigma-Aldrich (St. Louis, MO). […]
Mitochondrial respiration and H2O2 production measurements. […] Mitochondrial H2O2 production will be measured at 30° C. during state 4 respiration in buffer Z (10 μg/mL oligomycin) by continuously monitoring oxidation of Amplex Red using a Spex Fluoromax 3 (Jobin Yvon, Ltd.) spectrofluorometer with temperature control and magnetic stirring at >1000 rpm. […] After baseline fluorescence (reactants only) is established, the reaction will be initiated by addition of a permeabilized fiber bundle to 300 μL of buffer Z containing 5 μM Amplex Red and 0.5 U/mL HRP, with succinate at […]. […]

[3] = test system: Sprague-Dawley rats; experiment: Example 41: contrast-induced nephropathy in glycerol-induced rhabdomyolysis; type: in vivo, rat; conditions: 25% glycerin + diatrizoate
Procedure: Animal model: This Example will utilize animals subjected to glycerol-induced rhabdomyolysis, as previously described. Parvez, et al., Invest. Radiol., 24:698-702 (1989); Duan, et al., Acta Radiologica, 41:503-507(2000). Sprague-Dawley rats with body weight of 300-400 g will be dehydrated for 24 hours followed by intramuscular (i.m.) injection of 25% glycerol solution (v/v) at the dose of 10 mL/kg. Twenty-four hours later, the animals will be administered a contrast dye with peptide conjugates, aromatic-cationic peptides, SPN10(s) with or without aromatic-cationic peptides, or control vehicle according to the following: 1) 25% glycerin+Saline+PBS (n=6), 2) 25% glycerin+diatrizoate+PBS (n=7), 3) 25% glycerin+diatrizoate+peptide conjugates (n=7), 4) 25% glycerin+diatrizoate+aromatic-cationic peptides (n=7), 5) 25% glycerin+diatrizoate+SPN10(s), and 6) 25% glycerin+diatrizoate+SPN10(s)+aromatic-cationic peptides. […] Samples will be analyzed by students t-test and differences will be considered significant at p<0.05.
Renal function: Renal function will be assessed by determining serum and urinary creatinine at baseline, 24 hours after dehydration, and 48 hours following contrast dye administration. Creatinine clearance will be calculated based on serum and urinary creatinine levels and urinary volume. Urinary albumin concentration will be determined using a competition ELISA assay.

[4] = test system: Ang II-induced hypertensive cardiomyopathy; experiment: Ang II (4 weeks) induced cardiac NADPH oxidase, p38 MAPK and apoptosis; type: in vivo
Excerpt: It is anticipated that SPN10(s) (with or without aromatic-cationic peptides) or peptide conjugates act downstream of NADPH oxidase and will reduce activation of p38 MAPK and apoptosis in response to Ang II. […] Mitochondrial ROS, either directly, or indirectly by activating apoptosis signal regulating kinase, may induce apoptosis. It is anticipated that Ang II will induce cardiac apoptosis, which will be shown through an increase in cleaved caspase-3.

With `N=C(N)NCCC[C@H](NC(=O)[C@@H](N)Cc1c[nH]c2ccccc12)C(=O)N[C@@H](Cc1c[nH]c2ccccc12)C(=O)N[C@@H](CCCCN)C(N)=O` [SPN10, H-L-Trp-L-Arg-L-Trp-L-Lys-NH2] (H-WRWK-NH2) the “apoptosis of islet cells (annexin V)” value [1] was “reduce apoptosis”, the “islet cell viability (mitochondrial membrane potential)” value [1] was “increase islet cell viability” and the “mitochondrial dysfunction under a high-fat diet” value [2] was “reduce mitochondrial dysfunction”. For the same compound, the “albuminuria after contrast dye” value [3] was “attenuate or prevent albuminuria”, the “creatinine clearance after contrast dye” value [3] was “attenuate or prevent reduced creatinine clearance” and the “loss of proximal tubule brush border, glomerular swelling and tubular protein cast deposition (PAS)” value [3] was “attenuate or prevent these effects”. For the same compound, the “Ang II-increased cardiac NADPH oxidase activity” value ([4]; 4 weeks of Ang II) was “not be changed”, the “activation of caspase-3 caused by Ang II (cleaved caspase-3)” value ([4]; Ang II) was “completely prevent” and the “phosphorylation of p38 MAPK” value ([4]; Ang II for 4 weeks) was “significantly and nearly fully attenuated”.
